Source: patent US5380713A, “Peptide aldehydes as antithrombotic agents” (Bristol-Myers Squibb Company, priority 1994, dated 1995)
Non-standard residues stand in square brackets, D forms with d. Residues, ends and D or L forms follow the SMILES beside them. *: point of attachment. Hydrocinnamoyl = O=C(CCc1ccccc1)*; PhAc = O=C(Cc1ccccc1)*; Bz = O=C(c1ccccc1)*

Tests used:
human thrombin = biological target: T1, human thrombin (Homo sapiens, UniProt P00734); experiment: Thrombin clotting time in pooled human plasma, initial effect before incubation; assay type: biochemical; conditions: 3.3 U/ml human thrombin, 37° C.
T1 construct: 10U/ml human thrombin
Method: Clotting times were measured optically using the Medical Laboratory Automation Electra 700 (MLA 700). Test cuvettes contained 0.1 ml of pre-warmed Owren's buffer, 0.1 ml of the human plasma and 1.2 and 3.0 μl of the test compounds dissolved in water. The cuvette was then vortex mixed and placed on the MLA 700 sample wheel. Clotting time was determined at 37° C. after the addition of 0.1 ml of 10U/ml human thrombin (final concentration=3.3 U/ml).

thrombin clotting time = experiment: Ex vivo clotting time prolongation after oral dosing of rats; assay type: in vivo, rat; conditions: rats dosed orally (p.o.), three per group; clotting time measured ex vivo
Method: Human citrated plasma obtained from human volunteers or citrated plasma obtained from dosed animals (prepared as described below). 25 NIH Units/ml human α-thrombin in thrombin buffer for use with rat plasma. 10 NIH Units/ml human α-thrombin in thrombin buffer for use with human plasma. Dosing: Test compound was prepared just prior to dosing. Routinely the drugs are dissolved in water. Occasionally other vehicles are used, such as PEQ-200 stock solutions are vortex mixed and animals are dosed p.o. using a 3 ml syringe with an 18-19 gauge oral gavage needle or i.p. injection. Blood Drawing for Rats: After the appropriate time period, the animals were ether-anesthetized, and blood was drawn by cardiac puncture using 333 μl of 3.8% sodium citrate per 3 ml blood. […] Clotting times were determined by pipetting 0.1 ml of Owren's buffer (pre-warmed to 37° C.) and 0.1 ml of human or rat plasma into yellow sample cuvettes. For studies with human plasma 10 U/ml human thrombin (10 ml) was placed in the reservoir assembly station of the MLA 700. (Medical Laboratory Automation, Electra 700 Reservoir Assembly). For rat studies, the human thrombin concentration was 25 U/ml. The cuvettes were vortexed and then placed on the MLA 700 sample wheel. The coagulation timer (MLA 700) automatically dispenses 0.1 ml human thrombin into the sample in each cuvette. Detection of the fibrin clot was determined optically by the MLA 700. In separate studies, compounds were dosed orally (p.o.) to three rats in each study group. […] Consequently, they are useful in controlling blood coagulation in mammals including humans.

[1] = Clotting time after incubation of compound in water at 40° C. (stability); assay type: physicochemical; conditions: 50 μM stock in deionized water, 0.25-24 hours, FIG. 1
Method: CLOTTING TIME AFTER INCUBATION OF COMPOUND IN WATER AT 40° C.
Fresh blood was drawn from two human donors into vacutainer tubes containing buffered sodium citrate (16 mg sodium citrate and 2.1 mg citric acid per 4.5 ml of blood). The tubes were centrifugated immediately at 1920×g for 15 minutes to obtain fresh platelet poor plasma. The plasma was pooled and 10 ml aliquots were divided into three test tubes. Two tubes were frozen and maintained at -20° C. for future use and one tube was kept on ice throughout testing.
The compound of Example 14 and D-Phe-Pro-Arg aldehyde: H2 SO4 were prepared as stock solutions (50 μM) in deionized water. […] After the initial effect of these compounds on clotting time was determined, the compounds were placed in a 40° C. water bath for various time intervals (from 0.25-24 hours) and aliquots were withdrawn to determine the effect of the incubation on clotting time.
Clotting times were measured optically using the Medical Laboratory Automation Electra 700 (MLA 700). Test cuvettes contained 0.1 ml of pre-warmed Owren's buffer, 0.1 ml of the human plasma and 1.2 and 3.0 μl of the test compounds dissolved in water. […] Clotting time was determined at 37° C. after the addition of 0.1 ml of 10U/ml human thrombin (final concentration=3.3 U/ml).
The stability of the compounds of the present invention were measured or described in the biological procedures. […]

SMILES: N=C(N)NCCC[C@@H](C=O)NC(=O)[C@@H]1CCCN1C(=O)[C@H](N)Cc1ccccc1 [D-Phe-Pro-Arg aldehyde, D-Phe-Pro-Arg aldehyde: H2 SO4, reference compound]
- final concentration which initially caused prolongation of clotting time to approximately three times control value (human thrombin): 0.5 µM

SMILES: Cl.Cl.N=C(N)NCCC[C@@H](C=O)NC(=O)[C@@H]1CCCN1C(=O)CCc1cccnc1 [Example 8, N^α [N-(3-(3-Pyridyl)propanoyl)-L-Prolyl]-L-arginine aldehyde Dihydrochloride]
- DTT (thrombin clotting time): ~ 100 mg/kg

SMILES: Cl.N=C(N)NCCC[C@@H](C=O)NC(=O)[C@@H]1CCCN1C(=O)c1ccccc1 [Example 9, Nα-[N-Benzoyl-L-prolyl]-L-arginine aldehyde Hydrochloride] (Bz-Pro-Arg-aldehyde)
- DTT (thrombin clotting time): 150 mg/kg

SMILES: Cl.N=C(N)NCCC[C@@H](C=O)NC(=O)[C@@H]1CCCN1C(=O)Cc1ccccc1 [Example 12, N^α -[N-Phenylacetyl-L-prolyl]-L-arginine aldehyde Hydrochloride] (PhAc-Pro-Arg-aldehyde)
- DTT (thrombin clotting time): 100 mg/kg

SMILES: Cl.N=C(N)NCCC[C@@H](C=O)NC(=O)[C@@H]1CCCN1C(=O)CCC1CCCCC1 [Example 13, N^α -[N-(3-Cyclohexylpropanoyl)-L-prolyl]-L-arginine aldehyde Hydrochloride]
- DTT (thrombin clotting time): 100 mg/kg

SMILES: Cl.N=C(N)NCCC[C@@H](C=O)NC(=O)[C@@H]1CCCN1C(=O)CCc1ccccc1 [Example 14, N^α -[N-(3-Phenylpropanoyl)-L-prolyl]-L-arginine aldehyde Hydrochloride] (Hydrocinnamoyl-Pro-Arg-aldehyde)
- final concentration which initially caused prolongation of clotting time to approximately three times control value (human thrombin): 0.2 µM
- DTT (thrombin clotting time): 60 mg/kg
- stability in water (effect of incubation on clotting time) [1]: more stable than the corresponding D-phe compound

SMILES: Cl.Cl.N=C(N)NCCC[C@@H](C=O)NC(=O)[C@@H]1CCCN1C(=O)[C@@H](Cc1ccccc1)NC(=O)CN [Example 16, N^α -[Glycl-D-phenylalanyl-L-prolyl]-L-arginine aldehyde Dihydrochloride] (H-G[dF]PR-aldehyde)
- DTT (thrombin clotting time): 50 mg/kg

SMILES: C[C@H](NC(=O)[C@H](N)Cc1ccccc1)C(=O)N[C@H](C=O)CCCNC(=N)N.O=S(=O)(O)O [Example 19, N^α -[D-Phenylalanyl-L-alanyl]-L-arginine aldehyde Sulfate] (H-[dF]-Ala-Arg-aldehyde)
- DTT (thrombin clotting time): 110 mg/kg
